# Source: patent US20240102016A1, “APPLICATION OF VEGFR GENE EXPRESSION INHIBITOR IN PREPARING PREPARATION OR AS PREPARATION FOR TREATING PSORIASIS” (priority 2022, published 2024)
# Assays:
# Type in all cases: in vivo
# [1] = test system: RASGRP1 downstream pathway; experiment: Western blot of RASGRP1 downstream pathway proteins in skin tissues of psoriatic mice; conditions: skin smeared with SU5205; compared with the IMQ-induced mice
# Text: (§1) In the embodiment of the disclosure, psoriatic mice coated with VEGFR inhibitors are constructed as follows: dissolving the VEGFR inhibitor SU5205 in dimethyl sulfoxide (DMSO) solution to prepare stock solution, diluting the stock solution with cyclodextrin, and coating the stock solution with a concentration of […] (referred to a daily dosage per kilogram of body weight of the psoriatic mice) on the psoriatic mice. 7-8-week wild-type mice are taken with back hair shaved and an exposed skin area of 2 cm×2 cm. 150 μL of the VEGFR inhibitor solution is coated on the skin surface. The normal control mice are coated with control reagent (with 150 μL of DMSO and cyclodextrin). The psoriatic mice and the normal control mice are respectively coated with Imiquimod (IMQ) cream or control reagent VAS on the exposed skin in 4 h later of the above operation.
# In the embodiment of the disclosure, the psoriatic mice subcutaneously injected with VEGF are constructed as follows: dissolving VEGF165 protein in DMSO solution to prepare stock solution, diluting the stock solution with cyclodextrin, and smearing the mice with the stock solution with a concentration of […]. 7-8-week wild-type mice are taken with back hair shaved and an exposed skin area of 2 cm×2 cm. 100 μL of the VEGF165 solution is injected subcutaneously the skin surface of the mice. The normal control mice are injected with control reagent subcutaneously (with 100 μL of DMSO and cyclodextrin). The psoriatic mice subcutaneously injected with VEGF165, and the normal control mice are respectively smeared IMQ cream or control reagent VAS on the exposed skin in 4 h later of the injections.
# [2] = test system: RASGRP1+T cells and IL-17A+T cells; experiment: Flow cytometry of RASGRP1+T cells and IL-17A+T cells in skin tissues of psoriatic mice; conditions: skin smeared with SU5205
# Text: as §1
# (§2) In the embodiment of the disclosure, the psoriatic mice subcutaneously injected with VEGF are constructed as follows: dissolving VEGF165 protein in DMSO solution to prepare stock solution, diluting the stock solution with cyclodextrin, and smearing the mice with the stock solution with a concentration of […]. 7-8-week wild-type mice are taken with back hair shaved and an exposed skin area of 2 cm×2 cm. 100 μL of the VEGF165 solution is injected subcutaneously the skin surface of the mice. […]
# [3] = test system: IMQ-induced psoriatic mice; experiment: H&E staining of skin sections and PASI scores in IMQ-induced psoriatic mice; conditions: skin smeared with SU5205, 10 kg/kg/d, 150 μL, 4 h before IMQ cream; compared with the IMQ-induced mice
# Text: as §1, §2
compound,measurement,setting,value
O=C1Nc2ccccc2/C1=C/c1ccc(F)cc1 [SU5205],active protein level of IL-1β in skin tissues,[1],significantly lower
same,active protein level of NF-κB in skin tissues,[1],significantly reduced
same,active protein level of phosphorylated AKT in skin tissues,[1],significantly reduced
same,IL-17A+T cells in skin tissues,[2],decrease significantly
same,Rasgrp1+T cells in skin tissues,[2],decrease significantly
same,"psoriasis phenotypes (dorsal skin thickness, erythema, scaling; H&E staining and PASI scores)",[3],significantly reduced
